Source: ChEMBL document CHEMBL1122157 (J Med Chem, 1982)

Molecular target: T1, Dihydrofolate reductase (Gallus gallus, UniProt P00378)
T1 sequence (P00378 whole entry): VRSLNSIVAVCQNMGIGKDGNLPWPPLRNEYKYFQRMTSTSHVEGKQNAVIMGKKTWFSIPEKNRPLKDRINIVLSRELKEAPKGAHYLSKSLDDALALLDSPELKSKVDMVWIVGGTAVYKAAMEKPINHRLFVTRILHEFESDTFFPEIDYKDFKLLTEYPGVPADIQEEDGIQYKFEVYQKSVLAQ
Assay: Evaluated for the inhibition of chicken liver Dihydrofolate reductase by using standard enzyme assay
Details: read-out: I50

CN(Cc1cnc2nc(N)nc(N)c2n1)c1ccc(C(=O)NC(CCCN)C(=O)O)cc1 (stereo unspecified)
IC50: 250 nM

CN(Cc1cnc2nc(N)nc(N)c2n1)c1ccc(C(=O)NC(CCCNC(=O)OCc2ccccc2)C(=O)OC(C)(C)C)cc1 (stereo unspecified)
IC50: 3100 nM

CN(Cc1cnc2nc(N)nc(N)c2n1)c1ccc(C(=O)NC(CCCNC(=O)OCc2ccccc2)C(=O)O)cc1 (stereo unspecified)
IC50: 330 nM

CN(Cc1cnc2nc(N)nc(N)c2n1)c1ccc(C(=O)NC(CCCCNC(=O)OCc2ccccc2)C(=O)OC(C)(C)C)cc1 (stereo unspecified)
IC50: 950 nM

CN(Cc1cnc2nc(N)nc(N)c2n1)c1ccc(C(=O)NC(CCCCN)C(=O)O)cc1 (stereo unspecified)
IC50: 130 nM

CN(Cc1cnc2nc(N)nc(N)c2n1)c1ccc(C(=O)NC(CCCCNC(=O)OCc2ccccc2)C(=O)O)cc1 (stereo unspecified)
IC50: 380 nM
